Assay results as given in ChEMBL document CHEMBL5532646, “Discovery of 4-(N-dithiobenzyl piperazine)-1,8-naphthalimide as a potent multi-target antitumor agent with good efficacy, limited toxicity, and low resistance” (Eur J Med Chem, 2024).
The source made the active and inactive calls. No cut-off for these calls is given here.

Columns and labels:
T-24 [1] = assay: Antiproliferative activity against human T24 cells xenografted in nude mouse model assessed as tumor inhibition rate at 5 mg/kg, ip administered once every two days for 21 days relative to control; assay type: functional; conditions: T-24, 504 h, time 21 day
[2] = Toxicity in nude mouse model xenografted with human SK-OV-3 cells assessed as pathological change in liver at 15 mg/kg, ip administered once every two days for 21 days; assay type: organism-based; conditions: in vivo, 504 h, time 21 day
SK-OV-3 [3] = assay: Antiproliferative activity against human SK-OV-3 cells incubated for 48 hrs by MTT assay; assay type: functional, cell-based; conditions: SK-OV-3, 48 h
HepG2 [4] = assay: Antiproliferative activity against human HepG2 cells xenografted in nude mouse model assessed as tumor inhibition rate at 5 mg/kg, ip administered once every two days for 21 days relative to control; assay type: functional; conditions: HepG2, 504 h, time 21 day
HepG2 [5] = assay: Antiproliferative activity against human HepG2 cells xenografted in nude mouse model assessed as tumor inhibition rate at 15 mg/kg, ip administered once every two days for 21 days relative to control; assay type: functional; conditions: HepG2, 504 h, time 21 day
MGC-803 = assay: Antiproliferative activity against human MGC-803 cells incubated for 48 hrs by MTT assay; assay type: functional, cell-based; conditions: MGC-803, 48 h
[6] = Toxicity in nude mouse model xenografted with human SK-OV-3 cells assessed as pathological change in heart at 15 mg/kg, ip administered once every two days for 21 days; assay type: organism-based; conditions: in vivo, 504 h, time 21 day
[7] = Toxicity in nude mouse model xenografted with human HepG2 cells assessed as pathological change in liver at 5 to 15 mg/kg, ip administered once every two days for 21 days; assay type: organism-based; conditions: in vivo, 504 h, dose 5-15 mg/kg, time 21 day
[8] = Toxicity in nude mouse model xenografted with human HepG2 cells assessed as pathological change in lung at 5 to 15 mg/kg, ip administered once every two days for 21 days; assay type: organism-based; conditions: in vivo, 504 h, dose 5-15 mg/kg, time 21 day
[9] = Toxicity in nude mouse model xenografted with human HepG2 cells assessed as pathological change in spleen at 5 to 15 mg/kg, ip administered once every two days for 21 days; assay type: organism-based; conditions: in vivo, 504 h, dose 5-15 mg/kg, time 21 day
[10] = Toxicity in nude mouse model xenografted with human SK-OV-3 cells assessed as pathological change in spleen at 15 mg/kg, ip administered once every two days for 21 days; assay type: organism-based; conditions: in vivo, 504 h, time 21 day
T-24 [11] = assay: Antiproliferative activity against human T24 cells xenografted in nude mouse model assessed as tumor inhibition rate at 15 mg/kg, ip administered once every two days for 21 days relative to control; assay type: functional; conditions: T-24, 504 h, time 21 day
[12] = Toxicity in nude mouse model xenografted with human T24 cells assessed as pathological change in heart at 5 to 15 mg/kg, ip administered once every two days for 21 days; assay type: organism-based, T-24; conditions: in vivo, 504 h, dose 5-15 mg/kg, time 21 day
[13] = Toxicity in nude mouse model xenografted with human T24 cells assessed as pathological change in liver at 5 to 15 mg/kg, ip administered once every two days for 21 days; assay type: organism-based, T-24; conditions: in vivo, 504 h, dose 5-15 mg/kg, time 21 day
[14] = Toxicity in nude mouse model xenografted with human T24 cells assessed as pathological change in spleen at 5 to 15 mg/kg, ip administered once every two days for 21 days; assay type: organism-based, T-24; conditions: in vivo, 504 h, dose 5-15 mg/kg, time 21 day
[15] = Toxicity in nude mouse model xenografted with human SK-OV-3 cells assessed as pathological change in lung at 15 mg/kg, ip administered once every two days for 21 days; assay type: organism-based; conditions: in vivo, 504 h, time 21 day
A549/CDDP = assay: Antiproliferative activity against human A549/DDP cells incubated for 48 hrs by MTT assay; assay type: functional, cell-based
T-24 [16] = assay: Antiproliferative activity against human T24 cells incubated for 48 hrs by MTT assay; assay type: functional, cell-based; conditions: T-24, 48 h
SK-OV-3 [17] = assay: Antiproliferative activity against human SK-OV-3 cells xenografted in nude mouse model assessed as tumor inhibition rate at 15 mg/kg, ip administered once every two days for 21 days relative to control; assay type: functional; conditions: SK-OV-3, 504 h, time 21 day
[18] = Toxicity in nude mouse model xenografted with human T24 cells assessed as pathological change in lung at 5 to 15 mg/kg, ip administered once every two days for 21 days; assay type: organism-based, T-24; conditions: in vivo, 504 h, dose 5-15 mg/kg, time 21 day
HepG2 [19] = assay: Antiproliferative activity against human HepG2 cells incubated for 48 hrs by MTT assay; assay type: functional, cell-based; conditions: HepG2, 48 h
[20] = Toxicity in nude mouse model xenografted with human HepG2 cells assessed as pathological change in heart at 5 to 15 mg/kg, ip administered once every two days for 21 days; assay type: organism-based; conditions: in vivo, 504 h, dose 5-15 mg/kg, time 21 day
A549 = assay: Antiproliferative activity against human A549 cells incubated for 48 hrs by MTT assay; assay type: functional, cell-based
SK-OV-3 [21] = assay: Antiproliferative activity against human SK-OV-3 cells xenografted in nude mouse model assessed as tumor inhibition rate administered intraperitoneally once every two days for 21 days; assay type: functional, cell-based; conditions: dose 15.0 mg/kg, route ip, time 21.0 day

## CNCCCN1C(=O)c2cccc3c(N4CCN(C(=S)SCc5ccccc5)CC4)ccc(c23)C1=O
T-24 [1]
  inhibition in vivo at 5 mg/kg: 55.1%
[2]
  Activity: Non-Toxic
SK-OV-3 [3]
  IC50: 1070 nM
HepG2 [4]
  inhibition in vivo at 5 mg/kg: 53%
HepG2 [5]
  inhibition in vivo at 15 mg/kg: 58.8%
MGC-803
  IC50: 3040 nM
[6]
  Activity: Non-Toxic
[7]
  Activity: Non-Toxic
[8]
  Activity: Non-Toxic
[9]
  Activity: Non-Toxic
[10]
  Activity: Non-Toxic
T-24 [11]
  inhibition in vivo at 15 mg/kg: 57.1%
[12]
  Activity: Non-Toxic
[13]
  Activity: Non-Toxic
[14]
  Activity: Non-Toxic
[15]
  Activity: Non-Toxic
A549/CDDP
  Activity: Active
T-24 [16]
  IC50: 590 nM
SK-OV-3 [17]
  inhibition in vivo at 15 mg/kg: 53.1%
[18]
  Activity: Non-Toxic
HepG2 [19]
  IC50: 1540 nM
[20]
  Activity: Non-Toxic
A549
  Activity: Active
SK-OV-3 [21]
  inhibition: Dose-Dependent Effect
